Assay results taken from publication PMC5008855 (Organic & biomolecular chemistry, 2016).

Molecular target: T1, human COX-2 enzyme (cyclooxygenase II) (Homo sapiens, UniProt P35354)
T1 sequence (P35354 18-604): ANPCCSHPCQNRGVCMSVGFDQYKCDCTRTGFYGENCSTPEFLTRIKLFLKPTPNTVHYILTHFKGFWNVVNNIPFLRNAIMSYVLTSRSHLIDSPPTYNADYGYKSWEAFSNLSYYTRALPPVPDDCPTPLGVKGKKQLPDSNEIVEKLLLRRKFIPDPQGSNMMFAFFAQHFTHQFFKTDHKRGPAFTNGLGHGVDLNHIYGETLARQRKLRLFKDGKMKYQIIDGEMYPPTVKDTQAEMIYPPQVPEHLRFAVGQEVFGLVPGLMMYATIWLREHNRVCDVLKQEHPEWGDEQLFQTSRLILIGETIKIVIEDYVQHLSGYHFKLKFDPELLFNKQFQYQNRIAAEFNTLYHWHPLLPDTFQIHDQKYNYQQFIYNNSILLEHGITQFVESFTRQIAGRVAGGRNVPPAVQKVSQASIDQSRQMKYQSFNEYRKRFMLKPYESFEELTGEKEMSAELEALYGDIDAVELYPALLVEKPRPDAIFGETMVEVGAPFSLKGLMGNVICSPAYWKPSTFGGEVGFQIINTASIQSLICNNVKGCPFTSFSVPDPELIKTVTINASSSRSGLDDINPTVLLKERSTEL
Test: human COX-2 activity inhibition assay
Format: biochemical

IC50: 2000 nM
Substance: homoneoprofen [compound 2]
